Laboratory results: paper PMC8231556, “Inhibiting Endothelial Cell Function in Normal and Tumor Angiogenesis Using BMP Type I Receptor Macrocyclic Kinase Inhibitors” (Cancers, 2021)

Legend:
Assay in all cases: radiometric kinase profiling (33 PanQinase)
Type in all cases: biochemical
[1] = target: T1, CAMK2D (Homo sapiens, UniProt Q13557); details: read-out: Inhibitory effect (%) CAMK2D
T1 construct: purchased Proqinase, Germany
How it was run: (§1)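 Enzyme/substrate mixes were incubated with [γ-33P]-ATP and compound (added as a 0.1 μM solution in 10% DMSO) at 30 °C for 60 min, then stopped with H3PO4 and washed with NaCl. 33P incorporation was scintillation-counted, and residual activity (%) was normalized to untreated control and background.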

[2] = target: T2, GSG2 (Homo sapiens, UniProt Q8TF76); details: read-out: Inhibitory effect (%) GSG2
T2 construct: purchased ProQinase (33PanQinase Activity Assay)
T2 sequence (Q8TF76 1-798): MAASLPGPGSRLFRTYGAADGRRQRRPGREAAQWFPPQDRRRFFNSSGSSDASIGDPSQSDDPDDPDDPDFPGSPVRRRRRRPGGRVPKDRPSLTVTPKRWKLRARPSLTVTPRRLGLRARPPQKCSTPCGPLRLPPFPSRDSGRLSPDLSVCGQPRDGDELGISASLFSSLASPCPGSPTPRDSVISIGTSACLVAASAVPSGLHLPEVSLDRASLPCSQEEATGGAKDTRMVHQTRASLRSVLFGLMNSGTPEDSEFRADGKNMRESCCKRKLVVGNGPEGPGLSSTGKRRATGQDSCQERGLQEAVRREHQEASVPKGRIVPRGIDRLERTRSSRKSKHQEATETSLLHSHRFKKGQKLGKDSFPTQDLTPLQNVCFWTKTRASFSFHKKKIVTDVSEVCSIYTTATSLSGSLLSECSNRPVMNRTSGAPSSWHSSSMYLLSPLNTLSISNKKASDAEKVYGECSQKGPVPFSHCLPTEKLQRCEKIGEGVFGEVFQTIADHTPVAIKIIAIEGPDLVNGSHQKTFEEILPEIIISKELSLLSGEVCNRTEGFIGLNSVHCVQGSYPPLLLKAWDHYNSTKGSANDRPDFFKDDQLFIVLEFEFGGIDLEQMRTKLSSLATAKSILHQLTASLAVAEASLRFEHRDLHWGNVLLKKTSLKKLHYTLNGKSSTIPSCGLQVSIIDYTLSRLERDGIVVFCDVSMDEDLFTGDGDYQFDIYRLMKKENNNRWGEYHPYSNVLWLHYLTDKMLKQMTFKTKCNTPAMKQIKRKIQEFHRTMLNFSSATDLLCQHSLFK
How it was run: as §1

[3] = target: T3, MAPKAPK2 (Homo sapiens, UniProt P49137); details: read-out: Inhibitory effect (%) MAPKAPK2
T3 construct: purchased ProQinase (33PanQinase Activity Assay)
T3 sequence (P49137 whole entry): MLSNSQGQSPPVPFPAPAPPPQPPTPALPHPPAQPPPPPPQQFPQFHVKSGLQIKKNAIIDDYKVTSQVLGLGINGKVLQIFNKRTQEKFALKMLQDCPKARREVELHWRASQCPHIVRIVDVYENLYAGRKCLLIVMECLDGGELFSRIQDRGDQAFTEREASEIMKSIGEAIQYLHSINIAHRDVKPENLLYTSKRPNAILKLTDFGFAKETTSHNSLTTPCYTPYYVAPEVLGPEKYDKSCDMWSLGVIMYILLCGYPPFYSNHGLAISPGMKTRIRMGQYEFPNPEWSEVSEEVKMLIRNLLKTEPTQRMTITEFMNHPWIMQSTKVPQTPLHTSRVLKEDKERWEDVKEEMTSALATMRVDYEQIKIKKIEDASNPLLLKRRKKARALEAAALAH
How it was run: as §1

[4] = target: T4, CDK1_cyclinA2 (Homo sapiens, UniProt P06493); details: read-out: Inhibitory effect (%) CDK1_cyclinA2
T4 construct: purchased Proqinase, Germany
T4 sequence (P06493 whole entry): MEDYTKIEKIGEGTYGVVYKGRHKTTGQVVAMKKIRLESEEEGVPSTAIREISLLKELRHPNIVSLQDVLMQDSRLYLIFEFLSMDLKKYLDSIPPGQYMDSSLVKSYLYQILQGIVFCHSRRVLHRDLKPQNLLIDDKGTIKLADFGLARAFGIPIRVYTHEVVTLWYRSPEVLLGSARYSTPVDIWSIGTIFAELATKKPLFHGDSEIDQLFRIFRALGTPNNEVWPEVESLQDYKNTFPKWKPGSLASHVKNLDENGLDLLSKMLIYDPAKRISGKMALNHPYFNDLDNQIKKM
T4 sequence (P20248 whole entry partner): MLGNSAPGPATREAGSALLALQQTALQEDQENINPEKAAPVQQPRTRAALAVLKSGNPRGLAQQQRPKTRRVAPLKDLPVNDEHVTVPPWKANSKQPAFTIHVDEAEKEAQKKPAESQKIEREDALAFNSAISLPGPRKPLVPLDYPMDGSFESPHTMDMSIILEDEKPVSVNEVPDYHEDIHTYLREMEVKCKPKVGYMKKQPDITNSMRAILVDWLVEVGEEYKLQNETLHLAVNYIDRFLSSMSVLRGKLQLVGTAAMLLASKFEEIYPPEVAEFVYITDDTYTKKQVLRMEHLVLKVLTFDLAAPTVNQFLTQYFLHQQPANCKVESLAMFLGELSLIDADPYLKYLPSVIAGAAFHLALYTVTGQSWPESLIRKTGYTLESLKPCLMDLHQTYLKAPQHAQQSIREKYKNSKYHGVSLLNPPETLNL
How it was run: as §1

[5] = target: T5, BTK (Homo sapiens, UniProt Q06187); details: read-out: Inhibitory effect (%) BTK
T5 construct: purchased Proqinase, Germany
T5 sequence (Q06187 whole entry): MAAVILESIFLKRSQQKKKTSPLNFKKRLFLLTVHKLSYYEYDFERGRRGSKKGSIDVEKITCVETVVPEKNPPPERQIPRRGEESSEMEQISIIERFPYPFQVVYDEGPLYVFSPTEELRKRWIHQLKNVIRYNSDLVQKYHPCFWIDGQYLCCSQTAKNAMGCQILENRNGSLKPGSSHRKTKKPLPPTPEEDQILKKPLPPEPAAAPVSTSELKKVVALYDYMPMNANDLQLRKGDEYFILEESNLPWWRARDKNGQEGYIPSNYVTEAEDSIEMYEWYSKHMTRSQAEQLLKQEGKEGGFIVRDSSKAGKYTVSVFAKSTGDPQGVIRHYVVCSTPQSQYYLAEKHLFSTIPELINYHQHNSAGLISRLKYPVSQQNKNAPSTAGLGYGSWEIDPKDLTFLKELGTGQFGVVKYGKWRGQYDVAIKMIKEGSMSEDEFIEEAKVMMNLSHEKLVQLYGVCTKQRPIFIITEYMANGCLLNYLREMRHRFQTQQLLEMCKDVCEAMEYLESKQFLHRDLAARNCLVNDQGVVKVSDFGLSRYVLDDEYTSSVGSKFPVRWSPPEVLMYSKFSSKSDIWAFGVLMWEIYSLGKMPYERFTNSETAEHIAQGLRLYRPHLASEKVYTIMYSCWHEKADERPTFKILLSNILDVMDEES
How it was run: as §1

[6] = target: T6, ABL1 (Homo sapiens, UniProt P00519); details: read-out: Inhibitory effect (%) ABL1
T6 construct: purchased Proqinase, Germany
T6 sequence (P00519 whole entry): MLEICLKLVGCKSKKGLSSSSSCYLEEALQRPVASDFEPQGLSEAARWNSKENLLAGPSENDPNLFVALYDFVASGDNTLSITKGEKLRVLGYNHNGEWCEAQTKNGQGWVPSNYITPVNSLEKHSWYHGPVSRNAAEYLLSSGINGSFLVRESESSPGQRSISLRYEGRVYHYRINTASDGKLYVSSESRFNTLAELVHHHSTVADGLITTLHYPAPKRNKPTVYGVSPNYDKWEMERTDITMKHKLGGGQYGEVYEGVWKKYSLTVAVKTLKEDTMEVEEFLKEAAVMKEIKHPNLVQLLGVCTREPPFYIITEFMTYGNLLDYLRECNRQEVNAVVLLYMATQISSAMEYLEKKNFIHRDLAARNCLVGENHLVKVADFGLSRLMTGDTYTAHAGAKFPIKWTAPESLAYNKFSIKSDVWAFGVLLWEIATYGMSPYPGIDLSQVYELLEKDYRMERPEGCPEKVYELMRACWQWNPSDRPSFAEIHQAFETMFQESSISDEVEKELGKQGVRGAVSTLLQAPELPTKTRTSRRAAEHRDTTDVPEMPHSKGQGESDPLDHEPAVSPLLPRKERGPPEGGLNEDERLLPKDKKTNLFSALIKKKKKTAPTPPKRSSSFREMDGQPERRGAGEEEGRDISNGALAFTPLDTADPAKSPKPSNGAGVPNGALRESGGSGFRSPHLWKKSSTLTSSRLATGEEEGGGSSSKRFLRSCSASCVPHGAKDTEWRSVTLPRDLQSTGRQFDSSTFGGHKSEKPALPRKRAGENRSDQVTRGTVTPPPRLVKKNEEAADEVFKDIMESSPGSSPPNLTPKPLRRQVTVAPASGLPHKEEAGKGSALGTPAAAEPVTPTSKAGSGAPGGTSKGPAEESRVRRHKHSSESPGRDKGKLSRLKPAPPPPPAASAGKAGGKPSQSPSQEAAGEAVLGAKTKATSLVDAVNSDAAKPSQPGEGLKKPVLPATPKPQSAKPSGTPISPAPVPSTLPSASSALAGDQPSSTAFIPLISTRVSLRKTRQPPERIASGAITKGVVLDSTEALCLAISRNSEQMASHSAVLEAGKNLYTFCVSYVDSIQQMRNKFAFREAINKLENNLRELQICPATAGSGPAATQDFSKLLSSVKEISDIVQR
How it was run: as §1

[7] = target: T7, DCLK2 (Homo sapiens, UniProt Q8N568); details: read-out: Inhibitory effect (%) DCLK2
T7 construct: purchased Proqinase, Germany
T7 sequence (Q8N568 1-766): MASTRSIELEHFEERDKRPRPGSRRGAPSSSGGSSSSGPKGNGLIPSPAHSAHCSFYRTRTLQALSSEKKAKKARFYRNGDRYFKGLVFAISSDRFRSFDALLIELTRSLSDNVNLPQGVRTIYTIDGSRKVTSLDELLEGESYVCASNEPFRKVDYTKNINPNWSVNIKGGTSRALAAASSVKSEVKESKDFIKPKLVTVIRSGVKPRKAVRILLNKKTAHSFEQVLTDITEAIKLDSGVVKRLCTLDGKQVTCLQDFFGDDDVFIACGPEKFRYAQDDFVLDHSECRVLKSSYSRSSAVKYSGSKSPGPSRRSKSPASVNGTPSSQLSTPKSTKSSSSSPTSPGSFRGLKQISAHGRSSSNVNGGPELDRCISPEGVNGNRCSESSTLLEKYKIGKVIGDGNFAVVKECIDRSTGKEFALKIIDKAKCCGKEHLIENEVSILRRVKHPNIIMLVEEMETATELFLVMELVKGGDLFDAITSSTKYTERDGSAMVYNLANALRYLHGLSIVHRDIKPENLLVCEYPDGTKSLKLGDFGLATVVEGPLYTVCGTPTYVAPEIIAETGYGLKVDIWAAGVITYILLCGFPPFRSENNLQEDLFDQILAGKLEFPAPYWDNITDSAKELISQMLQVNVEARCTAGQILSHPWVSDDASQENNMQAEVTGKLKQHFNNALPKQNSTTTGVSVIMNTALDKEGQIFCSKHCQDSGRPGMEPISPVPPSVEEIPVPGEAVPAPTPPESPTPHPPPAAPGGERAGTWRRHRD
How it was run: as §1

[8] = target: T8, CHEK1 (Homo sapiens, UniProt O14757); details: read-out: Inhibitory effect (%) CHEK1
T8 construct: purchased Proqinase, Germany
T8 sequence (O14757 1-476): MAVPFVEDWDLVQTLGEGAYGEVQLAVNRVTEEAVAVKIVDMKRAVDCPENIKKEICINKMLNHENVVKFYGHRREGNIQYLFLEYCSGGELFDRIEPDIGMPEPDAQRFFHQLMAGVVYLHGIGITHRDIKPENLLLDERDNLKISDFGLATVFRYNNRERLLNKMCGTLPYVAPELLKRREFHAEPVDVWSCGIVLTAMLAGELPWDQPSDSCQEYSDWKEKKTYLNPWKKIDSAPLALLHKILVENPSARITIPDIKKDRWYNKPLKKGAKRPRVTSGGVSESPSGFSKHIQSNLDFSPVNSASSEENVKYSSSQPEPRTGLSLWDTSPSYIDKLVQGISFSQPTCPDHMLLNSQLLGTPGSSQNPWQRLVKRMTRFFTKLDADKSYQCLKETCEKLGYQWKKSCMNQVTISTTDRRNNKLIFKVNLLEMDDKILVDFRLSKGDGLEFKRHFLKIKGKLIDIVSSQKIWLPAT
How it was run: as §1

T1 sequence (Q13557 whole entry): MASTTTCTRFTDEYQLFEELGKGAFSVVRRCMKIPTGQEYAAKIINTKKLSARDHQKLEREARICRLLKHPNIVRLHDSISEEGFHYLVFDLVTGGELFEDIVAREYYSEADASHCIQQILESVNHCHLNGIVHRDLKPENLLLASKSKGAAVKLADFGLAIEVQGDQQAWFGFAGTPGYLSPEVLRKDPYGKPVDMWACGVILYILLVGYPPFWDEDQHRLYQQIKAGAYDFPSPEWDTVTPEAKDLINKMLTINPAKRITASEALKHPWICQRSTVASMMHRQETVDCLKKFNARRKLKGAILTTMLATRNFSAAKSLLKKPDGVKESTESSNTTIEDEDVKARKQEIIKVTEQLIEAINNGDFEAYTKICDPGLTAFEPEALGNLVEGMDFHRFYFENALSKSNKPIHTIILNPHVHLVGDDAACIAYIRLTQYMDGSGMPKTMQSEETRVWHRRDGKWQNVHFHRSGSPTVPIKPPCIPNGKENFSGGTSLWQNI

Compound | inhibition at 0.1 µM [1] [%] | inhibition at 0.1 µM [2] [%] | inhibition at 0.1 µM [3] [%] | inhibition at 0.1 µM [4] [%] | inhibition at 0.1 µM [5] [%] | inhibition at 0.1 µM [6] [%] | inhibition at 0.1 µM [7] [%] | inhibition at 0.1 µM [8] [%]
CN1CCC(=O)NCCNc2ccn3ncc(c3n2)-c2cccc(c2)C1 [OD29] | 9.77 | 34.6 | -4.8 | 23.7 | 7.22 | 18.7 | -15.9 | 4.25
c1ccc2c(-c3cnn4cc(-c5ccc(N6CCNCC6)cc5)cnc34)ccnc2c1 [LDN-193189, reference compound] | -13.3 | -5.75 | 0.06 | -2.18 | -12.4 | 12.5 | 9.12 | -34.6
CN1CCc2cccc(c2)Nc2nccc(n2)N2CCCc3cc(ccc32)C1 [OD16] | -3.48 | 6.26 | -14.6 | -8.88 | -12 | -20.1 | -2.18 | 0.85
